The record followed here is US9745328B2, “Flap modulators” (JANSSEN PHARMACEUTICA NV, priority 2013, dated 2017).

Read-outs that look alike come from different tables or passages of the source.

Assay [1] concerns the target human FLAP (Homo sapiens (Human), UniProt P20292). The assay is described as follows: FLAP binding assay (HTRF format). Put shortly: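 Samples were run in duplicate on each of two plates and the plate results averaged. Read-out is the HTRF signal ratio.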
Assay [2] has as its system leukotriene pathway in human whole blood (LTB4). In words: Human whole blood assay (LTB4 levels after calcium ionophore A23187 stimulation). The format is cell-based. To be noted: Homo sapiens, read-out: Human Whole Blood LTB4 IC50 1:1. Here is the method: The ability of the compounds of the present invention to treat a FLAP-mediated disease and/or disorder, or associated symptoms or complications thereof, was determined using the following procedures. Binding assay data represent the average value obtained from two different assay plates, with samples run in duplicate on each plate. Human whole blood assay data represent a single replicate on an assay plate using whole blood from at least one healthy donor.
An in vitro cellular assay was performed using human whole blood collected in heparin-containing tubes, which was used to test the ability of compounds to modulate the leukotriene pathway in human whole blood. The blood was diluted 1:1 in RPMI medium, pre-incubated for 15 min at 37° Celsius with test compounds at various concentrations, and then stimulated with calcium ionophore, A23187 (7 μg/mL), for 30 min at 37° Celsius. The samples were then centrifuged and plasma was removed. The plasma was diluted in assay buffer and LTB4 levels were measured using a commercial kit (Enzo Life Sciences). The concentration of each compound that was required for half-maximal inhibition (modulation) of recombinant enzyme activity (IC50) was calculated by a 4-parameter equation using the program GraphPad Prism (GraphPad software).

The mark [3] stands for this setting: human FLAP wild type, Table 6 (additional runs).
The mark [4] stands for this setting: human whole blood diluted 1:1, A23187 stimulation, Table 6 (additional runs).
Setting [5] is: Table 6 (additional runs), human FLAP wild type.
Setting [6] is: Table 6 (additional runs), human whole blood diluted 1:1, A23187 stimulation.

Chain of human FLAP (P20292 whole entry): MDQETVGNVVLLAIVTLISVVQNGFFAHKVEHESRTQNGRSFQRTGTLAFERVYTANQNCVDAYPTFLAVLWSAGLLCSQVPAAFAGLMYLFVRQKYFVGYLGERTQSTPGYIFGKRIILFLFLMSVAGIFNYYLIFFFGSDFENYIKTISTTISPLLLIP

Consider `C[C@@H](NS(=O)(=O)c1ccccc1-c1cnc(-c2cnc(N)nc2)c(F)c1)C(F)(F)F` [Example 883, 2-[6-(2-Aminopyrimidin-5-yl)-5-fluoropyridin-3yl]-N-[(1R)-2,2,2-trifluoro-1-methylethyl]benzenesulfonamide], for which, in assay [1] (setting [3]), the Ki (in general, a measure of affinity in units of concentration, obtained from inhibition or displacement) was 0.0342 µM. Also, the IC50 (as a rule, the concentration needed to halve the response being measured) in assay [2] (setting [4]) was found to be 0.0695 µM.

`Nc1cnc(-c2ccc(-c3ccccc3O[C@H]3CC[C@H](N)CC3)cc2F)cn1` [Example 891] came in with a Ki in assay [1] (setting [3]) of 0.0315 µM. For the same molecule, in assay [2] (setting [4]), the IC50 stood at 0.752 µM.

Regarding `CC(C)(C)NS(=O)(=O)c1ccccc1-c1ccc(-c2cnc3[nH]ccc3c2)c(F)c1` [Example 367, N-tert-Butyl-3′-fluoro-4′-(1H-pyrrolo[2,3-b]pyridin-5-yl)biphenyl-2-sulfonamide], the Ki in assay [1] (setting [5]) was determined as 0.0009 µM. The IC50 in assay [2] (setting [6]) is 0.0056 µM.

As for `Nc1ncc(-c2ccc(-c3ccccc3-c3ccnc(N)n3)cc2F)cn1` [Example 867, 4-[4′-(2-Aminopyrimidin-5-yl)-3′-fluorobiphenyl-2-yl]pyrimidin-2-amine], the affinity in assay [1] (setting [3]), expressed as Ki, was 0.246 µM. Also, the IC50 in assay [2] (setting [4]) came to 0.793 µM.

In assay [1] (setting [5]), `CN1CCN(S(=O)(=O)c2ccccc2-c2ccc(-c3cnc(N)cn3)c(F)c2)CC1` [Example 54, 5-{3-Fluoro-2′-[(4-methylpiperazin-1-yl)sulfonyl]biphenyl4-yl}pyrazin-2-amine] displayed a Ki of 0.0249 µM. In addition, the IC50 in assay [2] (setting [6]) stood at 0.0413 µM.

For the molecule `Nc1ncc(-c2ccc(-c3ccccc3-c3cn[nH]c3)cc2F)cn1` [Example 876, 5-[3-Fluoro-2′-(1H-pyrazo-4-yl)biphenyl-4-yl]pyrimidin-2-amine], the affinity in assay [1] (setting [3]) corresponds to a Ki of 0.0803 µM. The IC50 in assay [2] (setting [4]) stood at 1.08 µM.

As to `Nc1ncc(-c2ccc(-c3ccc(C(F)(F)F)nc3S(=O)(=O)C3CCOCC3)cc2F)cn1` [Example 907, 5-{2-Fluoro-4-[2-(tetrahydro-2H-pyran-4-ylsulfonyl)-6-(trifluoromethyl)pyridin-3-yl]phenyl}pyrimidin-2-amine], the affinity in assay [1] (setting [3]), expressed as Ki, was 0.006 µM. Also, the IC50 in assay [2] stood at 0.012 µM.

Molecule `Nc1cnc(-c2ccc(-c3cccnc3S(=O)(=O)c3cccnc3)cc2F)cn1` [Example 899, 5-{2-Fluoro-4-[2-(pyridin-3-ylsulfonyl)pyridin-3-yl]phenyl}pyrazin-2-amine] had a Ki in assay [1] (setting [3]) of 0.077 µM. Also, in assay [2] (setting [4]), the IC50 came to 0.0873 µM.

Molecule `CC(=O)N1CCCC(S(=O)(=O)c2ncccc2-c2ccc(-c3cnc(N)cn3)c(F)c2)C1` (stereo not drawn) [Example 903, 5-(4-{2-[(1-Acetylpiperidin-3-yl)sulfonyl]pyridin-3-yl}-2-fluorphenyl)pyrazin-2-amine] returned a Ki in assay [1] (setting [3]) of 0.0387 µM. For the same molecule, the IC50 in assay [2] (setting [4]) came to 0.0634 µM.

In assay [1] (setting [5]), `Nc1cnc(-c2ccc(-c3ccccc3S(=O)(=O)C3CCCC3)cc2F)cn1` [Example 195, 5-[2′-(Cyclopentylsulfonyl)-3-fluorobiphenyl-4-yl]pyrazin-2-amine] had a Ki of 0.0023 µM. In addition, the IC50 in assay [2] (setting [6]) was determined as 0.069 µM.

`CCNS(=O)(=O)c1cc(C(F)(F)F)ccc1-c1cnc(-c2cnc(N)nc2)c(F)c1` [Example 674, 2-[6-(2-Aminopyrimidin-5-yl)-5-fluoropyridin-3-yl]-N-ethyl-5-(trifluoromethyl)benzenesulfonamide] returned an inhibition constant Ki in assay [1] (setting [3]) of 0.0036 µM. Also, the IC50 in assay [2] (setting [4]) amounted to 0.0133 µM.

As for `Nc1cnc(-c2ccc(-c3ccccc3-c3cnsc3)cc2F)cn1` [Example 873, 5-(3-Fluoro-2′-isothiazol-4-ylbiphenyl-4-yl)pyrazin-2-amine], the Ki in assay [1] (setting [3]) came out at 0.0231 µM. Moreover, the 50% inhibitory concentration (IC50) in assay [2] (setting [4]) came out at 0.336 µM.

As for `Nc1ncc(-c2ccc(-c3ccc(C(F)(F)F)nc3S(=O)(=O)C3CCS(=O)(=O)CC3)cc2F)cn1` [Example 913, 5-(4-{2-[(1,1-Dioxidotetrahydro-2H-thiopyran-4-yl)sulfonyl]-6-(trifluoromethyl)pyridin-3-yl}-2-fluorophenyl)pyrimidin-2-amine], the Ki in assay [1] (setting [3]) is 0.0063 µM. In addition, in assay [2] (setting [4]), the IC50 worked out at 0.0119 µM.

Molecule `Nc1cnc(-c2ccc(-c3ccccc3S(=O)(=O)N[C@@H]3c4ccccc4C[C@H]3O)cc2F)cn1` [Example 159, 4′-(5-aminopyrazin-2-yl)-3′-fluoro-N-((1R,2R)-2-hydroxy-2,3-dihydro-1H-inden-1-yl)-[1,1′-biphenyl]-2-sulfonamide] showed a Ki in assay [1] (setting [5]) of 0.0008 µM. The IC50 in assay [2] (setting [6]) is 0.0013 µM.

In assay [1] (setting [3]), `Nc1cnc(-c2ccc(-c3ccccc3-c3cn[nH]c3)cc2F)cn1` [Example 870, 5-[3-Fluoro-2′-(1H-pyrazol-4-yl)biphenyl-4-yl]pyrazin-2-amine] registered a Ki of 0.0143 µM. In assay [2] (setting [4]), the IC50 is 0.0867 µM.

Take `CNc1ncc(-c2ccccc2-c2ccc(-c3cnc(N)cn3)c(F)c2)cn1` [Example 872, 5-[4′-(5-Aminopyrazin-2-yl)-3′-fluorobiphenyl-2-yl]-N-methylpyrimidin-2-amine]: the affinity in assay [1] (setting [3]) corresponds to a Ki of 0.0083 µM. Further, the IC50 in assay [2] (setting [4]) turned out to be 0.053 µM.

Turning to `Nc1cnc(-c2ccc(-c3cccnc3S(=O)(=O)C3CCN(CCO)CC3)cc2F)cn1` [Example 904, 2-[4-({3-[4-(5-Aminopyrazin-2-yl)-3-fluorophenyl]pyridin-2-yl}sulfonyl)pipendin-1-yl]ethanol], in assay [1] (setting [3]), the affinity, expressed as Ki, was 0.255 µM. The IC50 in assay [2] (setting [4]) was found to be 0.105 µM.

In the case of `Nc1cnc(-c2ccc(-c3cccnc3S(=O)(=O)c3ccccc3)cc2F)cn1` [Example 897, 5-{2-Fluoro-4-[2-(phenylsulfonyl)pyridin-3-yl]phenyl}pyrazin-2-amine], in assay [1] (setting [3]), the Ki was 0.007 µM. Further, the IC50 in assay [2] (setting [4]) worked out at 0.0903 µM.

With `Nc1cnc(-c2ccc(-c3ccccc3S(=O)(=O)N3CCC(CO)CC3)cc2F)cn1` [Example 68, (1-{[4′-(5-Aminopyrazin-2-yl)-3′-fluorobiphenyl-2-yl]sulfonyl}piperidin-4-yl)methanol], the affinity in assay [1] (setting [5]), expressed as Ki, was 0.0011 µM. The IC50 in assay [2] (setting [6]) turned out to be 0.0109 µM.

With `Nc1cnc(-c2ccc(-c3ccc(C(F)(F)F)nc3S(=O)(=O)C3CCS(=O)(=O)CC3)cc2F)cn1` [Example 912, 5-(4-{2-[(1,1-Dioxidotetrahydro-2H-thiopyran-4-yl)sulfonyl]-6-(trifluoromethyl)pyridin-3-yl}-2-fluorophenyl)pyrazin-2-amine], the affinity in assay [1] (setting [3]), expressed as Ki, was 0.0005 µM. Moreover, in assay [2] (setting [4]), the IC50 worked out at 0.0088 µM.

In assay [1] (setting [3]), `CN1CCC(S(=O)(=O)c2ncccc2-c2ccc(-c3cnc(N)cn3)c(F)c2)C1` (stereo not drawn) [Example 900, 5-(2-Fluoro-4-{2-[(1-methylpyrrolidin-3-yl)sulfonyl]pyridin-3-yl}phenyl)pyrazin-2-amine] gave a Ki of 0.0351 µM. The IC50 in assay [2] (setting [4]) turned out to be 0.0408 µM.

Turning to `Nc1cnc(-c2ccc(-c3cccnc3-c3ccccc3)cc2F)cn1` [Example 893, 5-[2-Fluoro-4-(2-phenylpyridin-3-yl)phenyl]pyrazin-2-amine], the affinity in assay [1] (setting [3]) corresponds to a Ki of 0.0303 µM. The half-maximal inhibitory concentration (IC50) in assay [2] (setting [4]) amounted to 0.603 µM.

In turn, `CC(C)N(CCO)S(=O)(=O)c1ccccc1-c1ccc(-c2cnc(N)cn2)c(F)c1` [Example 141, 4′-(5-Aminopyrazin-2-yl)-3′-fluoro-N-(2-hydroxyethyl)-N-(1-methylethyl)biphenyl-2-sulfonamide] gave a Ki in assay [1] (setting [5]) of 0.0007 µM. The IC50 in assay [2] (setting [6]) was determined as 0.0033 µM.

Regarding `N#Cc1ncc(-c2ccccc2-c2ccc(-c3cnc(N)cn3)c(F)c2)cn1` [Example 849, 5-[4′-(5-Aminopyrazin-2-yl)-3′-fluorobiphenyl-2-yl]pyrimidine-2-carbonitrile], the affinity in assay [1] (setting [3]) corresponds to a Ki of 0.0383 µM. Also, the IC50 in assay [2] (setting [4]) turned out to be 3.9 µM.

The molecule `Nc1cnc(-c2ccc(-c3ccccc3S(=O)(=O)c3ccccc3)cc2F)cn1` [Example 477, 5-[3-Fluoro-2′-(phenylsulfonyl)biphenyl-4-yl]pyrazin-2-amine] returned a Ki in assay [1] (setting [3]) of 0.0147 µM. In assay [2] (setting [4]), the 50% inhibitory concentration (IC50) was found to be 0.268 µM.

Molecule `Nc1cnc(-c2ccc(-c3ccccc3-c3cnc(N4CCNCC4)nc3)cc2F)cn1` [Example 862, 5-[3-Fluoro-2′-(2-piperazin-1-ylpyrimidin-5-yl)biphenyl-4-yl]pyrazin-2-amine] gave a Ki in assay [1] (setting [3]) of 0.122 µM. Further, in assay [2] (setting [4]), the IC50 was 0.121 µM.

Consider `C[C@H](O)CNS(=O)(=O)c1ccccc1-c1cnc(-c2cnc(N)nc2)c(F)c1` [Example 879, 2-[6-(2-Aminopyrimidin-5-yl)-5-fluoropyridin-3-yl]-N-[(2S)-2-hydroxypropyl]benzenesulfonamide], for which the affinity in assay [1] (setting [3]) corresponds to a Ki of 0.168 µM. In addition, the IC50 in assay [2] (setting [4]) came out at 0.106 µM.

`NC(=O)c1ccc(Oc2ccccc2-c2ccc(-c3cnc(N)nc3)c(F)c2)cc1` [Example 890, 4-{[4′-(2-Aminopyrimidin-5-yl)-3′-fluorobiphenyl-2-yl]oxy)benzamide]: affinity in assay [1] (setting [3]) was put at a Ki of 0.0037 µM. Moreover, the IC50 in assay [2] (setting [4]) turned out to be 0.0623 µM.

With `Nc1ncc(-c2ccc(-c3ccccc3Oc3ccc(C(=O)O)cc3)cc2F)cn1` [Example 889, 4-{[4′-(2-Aminopyrimidin-5-yl)-3′-fluorobiphenyl-2-yl]oxy}benzoic acid], in assay [1] (setting [3]), the Ki stood at 0.0039 µM. Moreover, the IC50 in assay [2] (setting [4]) was 0.236 µM.

Take `Nc1ncc(-c2ccc(-c3ccccc3OCc3ccc(C(=O)O)cc3)cc2F)cn1` [Example 887, 4-({[4′-(2-Aminopyrimidin-5-yl)-3′-fluorobiphenyl-2-yl]oxy}methyl)benzoic acid]: the Ki in assay [1] (setting [3]) amounted to 0.0304 µM. Further, the IC50 in assay [2] (setting [4]) is more than 1 µM.
